Measurements: ChEMBL document CHEMBL5375982, “How Modulator Binding at the Amyloidβ-γ-Secretase Interface Enhances Substrate Binding and Attenuates Membrane Distortion” (J Med Chem, 2023)
Calls of active or inactive are those of the source. No cut-off for these calls is given here.

What was measured:
Format in all cases: cell-based
[1] = molecular target: T1, Gamma-secretase (Homo sapiens) (UniProt Q96BI3+Q9NZ42+Q8WW43+P49768+Q92542+P49810); experiment: Modulation of gamma-secretase activity in HEK293T cells transfected with wild type APP C99 assessed as increase in processivity at 10 uM incubated for 24 to 30 hrs by ELISA; details: filed as modulator, time 24-30 hrs
[2] = molecular target: T1, Gamma-secretase (Homo sapiens); experiment: Modulation of gamma-secretase activity in HEK293T cells transfected with APP C99 K28R mutant assessed as increase in processivity at 10 uM incubated for 24 to 30 hrs by ELISA; details: filed as modulator, time 24-30 hrs
[3] = molecular target: T1, Gamma-secretase (Homo sapiens); experiment: Modulation of gamma-secretase activity in HEK293T cells transfected with APP C99 K28D mutant assessed as increase in processivity at 10 uM incubated for 24 to 30 hrs by ELISA; details: time 24-30 hrs
[4] = molecular target: T1, Gamma-secretase (Homo sapiens); experiment: Modulation of gamma-secretase activity in HEK293T cells transfected with APP C99 K28E mutant assessed as increase in processivity at 10 uM incubated for 24 to 30 hrs by ELISA; details: time 24-30 hrs
[5] = molecular target: T1, Gamma-secretase (Homo sapiens); experiment: Modulation of gamma-secretase activity in HEK293T cells transfected with APP C99 K28D mutant assessed as […] in amyloidbeta37 to amyloidbeta40 ratio at 10 uM incubated for 24 to 30 hrs by ELISA; details: filed as modulator, time 24-30 hrs
[6] = molecular target: T1, Gamma-secretase (Homo sapiens); experiment: Modulation of gamma-secretase activity in HEK293T cells transfected with APP C99 K28E mutant assessed as […] in amyloidbeta37 to amyloidbeta40 ratio at 10 uM incubated for 24 to 30 hrs by ELISA; details: filed as modulator, time 24-30 hrs

COc1cc(/C=C2\CCCN([C@@H](C)c3ccc(F)cc3)C2=O)ccc1-n1cnc(C)c1 was tested, and the Activity [1] was “Active”, the Activity [2] was “Active” and the Activity [3] was “inactive”. The Activity [4] was “inactive”, the Activity [5] was “Active” and the Activity [6] was “Active”.
